The record followed here is US10703821B2, “Method for stimulating or enhancing proliferation of cells by activating the mucin 1 (MUC1) receptor” (MINERVA BIOTECHNOLOGIES CORPORATION, priority 2005, dated 2020).

Molecules are shown by their SMILES.

This assay has as its system PSMGFR region of MUC1. The experiment in a line: western blot of ERK2 phosphorylation, competition with anti-PSMGFR. The format is cell-based. The text has this: FIG. 6 is a western blot of a competition experiment in which small molecules that bind to the PSMGFR region of MUC1 compete with anti-PSMGFR for binding to the site. […] The chemical formula for the competitor compound MN 9 referred to in this figure is […]

For `O=C(c1ccc2ccccc2c1)N1CCc2c([nH]c3ccccc23)C1c1ccc(C(F)(F)F)cc1` (centres unmarked) [MN 9], the “binding of anti-PSMGFR to the PSMGFR site in competition” value (in the presence of competitor small molecule) is given as “the antibody does not bind”. In addition, the ERK2 phosphorylation entry (in the presence of competitor small molecule and anti-PSMGFR) is “ERK2 phosphorylation is inhibited”.
